Source: ChEMBL document CHEMBL1155458, “Synthesis, inhibitory activity of cholinesterases, and neuroprotective profile of novel 1,8-naphthyridine derivatives” (J Med Chem, 2010)

Experiments:
[1] = biological target: T1, Acetylcholinesterase (Bos taurus) (UniProt P23795); assay: Displacement of propidium iodide from AChE in bovine erythrocytes at 10 uM after 15 mins by fluorescence plate reader; type: cell-based
T1 sequence (whole entry): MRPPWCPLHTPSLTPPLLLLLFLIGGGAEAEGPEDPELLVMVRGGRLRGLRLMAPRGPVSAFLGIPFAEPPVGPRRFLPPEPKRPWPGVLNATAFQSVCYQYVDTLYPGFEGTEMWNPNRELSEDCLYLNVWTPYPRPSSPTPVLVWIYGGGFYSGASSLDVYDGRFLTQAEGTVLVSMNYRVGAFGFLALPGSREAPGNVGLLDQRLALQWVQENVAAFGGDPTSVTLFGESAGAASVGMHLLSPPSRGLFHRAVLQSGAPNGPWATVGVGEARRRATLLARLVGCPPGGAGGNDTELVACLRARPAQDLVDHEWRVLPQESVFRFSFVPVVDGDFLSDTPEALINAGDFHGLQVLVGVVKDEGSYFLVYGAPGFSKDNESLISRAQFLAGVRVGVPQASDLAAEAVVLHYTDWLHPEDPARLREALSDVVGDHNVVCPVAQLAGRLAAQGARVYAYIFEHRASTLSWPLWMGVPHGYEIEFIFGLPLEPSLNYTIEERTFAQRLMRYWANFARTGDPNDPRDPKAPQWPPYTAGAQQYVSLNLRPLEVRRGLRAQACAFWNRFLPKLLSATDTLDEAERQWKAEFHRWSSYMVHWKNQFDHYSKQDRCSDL

SH-SY5Y [2] = assay: Cytotoxicity against human SH-SY5Y cells assessed as LDH release at 1 uM after 24 hrs by spectrophotometry (reference value: 17.7%); type: cell-based
SH-SY5Y [3] = assay: Neuroprotective activity in human SH-SY5Y cells assessed as protection against rotenone/oligomycin A-induced cell death at 1 uM after 24 hrs by LDH release assay; type: functional
SH-SY5Y [4] = assay: Neuroprotective activity in human SH-SY5Y cells assessed as protection against okadaic acid-induced cell death at 1 uM after 24 hrs by MTT assay; type: functional
Cholinesterase = Cholinesterase (Equus caballus, UniProt P81908)
Description: Inhibition of equine serum BuChE by Ellman's method

Acetylcholinesterase [5] = biological target: T2, Acetylcholinesterase (Homo sapiens, UniProt P22303)
Description: Inhibition of AChE in human erythrocytes by Ellman's method

Acetylcholinesterase [6] = biological target: Acetylcholinesterase (Electrophorus electricus, UniProt O42275)
Description: Inhibition of electric eel AChE by Ellman's method

Acetylcholinesterase [7] = biological target: T3, Acetylcholinesterase (Bos taurus, UniProt P23795); assay: biochemical
T3 sequence (P23795 whole entry): T1 sequence (whole entry)
Description: Displacement of propidium iodide from AChE in bovine erythrocytes after 15 mins by fluorescence plate reader

Rattus norvegicus [8] = species on record: Rattus norvegicus; assay: Prevention of okadaic acid-induced inhibition of PP2A in rat brain cortex assessed as increase in inorganic phosphorus release after 1 hr by malachite green assay relative to control; type: tissue-based
Acetylcholinesterase [9] = biological target: T2, Acetylcholinesterase; assay: Inhibition of AChE (unknown orign) by Lineweaver-Burke plot
Rattus norvegicus [10] = species on record: Rattus norvegicus; assay: Prevention of okadaic acid-induced inhibition of PP2A in rat brain cortex assessed as increase in inorganic phosphorus release at 1 uM after 1 hr by malachite green assay relative to control; type: tissue-based; design: scale not given: the % may be the effect or the level left
Rattus norvegicus [11] = species on record: Rattus norvegicus; assay: Prevention of okadaic acid-induced inhibition of PP2A in rat brain cortex assessed as increase in inorganic phosphorus release at 10 uM after 1 hr by malachite green assay relative to control; type: tissue-based; design: scale not given: the % may be the effect or the level left
SH-SY5Y [12] = assay: Neuroprotective activity in human SH-SY5Y cells assessed as protection against amyloid beta(1-42)-induced cell death after 24 hrs by MTT assay; type: functional, cell-based
SH-SY5Y [13] = assay: Neuroprotective activity in human SH-SY5Y cells assessed as protection against amyloid beta(1-42)-induced cell death at 1 uM after 24 hrs by MTT assay; type: functional
SH-SY5Y [14] = assay: Neuroprotective activity in human SH-SY5Y cells assessed as protection against amyloid beta(1-42)-induced cell death at 10 uM after 24 hrs by MTT assay; type: functional
Hippocampus [15] = assay: Neuroprotective activity in isolated rat brain hippocampal slices assessed as protection against oxygen and glucose deprivation-induced cell death after 24 hrs by MTT assay; type: functional, tissue-based
Hippocampus [16] = assay: Neuroprotective activity in isolated rat brain hippocampal slices assessed as protection against oxygen and glucose deprivation-induced cell death at 30 uM after 24 hrs by MTT assay; type: functional
[17] = biological target: T1, Acetylcholinesterase (Bos taurus); settings: 1 mM
Description: Displacement of propidium iodide from AChE in bovine erythrocytes at 1 mM after 15 mins by fluorescence plate reader

Chain of Cholinesterase (P81908 whole entry): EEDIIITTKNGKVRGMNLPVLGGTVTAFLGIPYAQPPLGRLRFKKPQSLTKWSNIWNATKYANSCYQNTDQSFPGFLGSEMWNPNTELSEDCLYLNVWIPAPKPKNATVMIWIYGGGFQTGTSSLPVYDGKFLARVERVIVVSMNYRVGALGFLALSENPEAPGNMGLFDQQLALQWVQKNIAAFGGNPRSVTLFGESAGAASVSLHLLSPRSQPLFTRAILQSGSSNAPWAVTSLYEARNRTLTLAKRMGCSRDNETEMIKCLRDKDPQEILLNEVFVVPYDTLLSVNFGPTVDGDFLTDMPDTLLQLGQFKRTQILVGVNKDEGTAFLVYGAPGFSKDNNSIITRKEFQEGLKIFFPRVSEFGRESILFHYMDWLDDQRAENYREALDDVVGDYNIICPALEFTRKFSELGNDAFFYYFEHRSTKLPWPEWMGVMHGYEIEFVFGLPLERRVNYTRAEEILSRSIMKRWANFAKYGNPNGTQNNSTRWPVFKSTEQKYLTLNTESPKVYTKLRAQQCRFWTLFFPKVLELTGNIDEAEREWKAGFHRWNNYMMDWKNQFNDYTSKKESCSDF
T2 sequence (P22303 whole entry): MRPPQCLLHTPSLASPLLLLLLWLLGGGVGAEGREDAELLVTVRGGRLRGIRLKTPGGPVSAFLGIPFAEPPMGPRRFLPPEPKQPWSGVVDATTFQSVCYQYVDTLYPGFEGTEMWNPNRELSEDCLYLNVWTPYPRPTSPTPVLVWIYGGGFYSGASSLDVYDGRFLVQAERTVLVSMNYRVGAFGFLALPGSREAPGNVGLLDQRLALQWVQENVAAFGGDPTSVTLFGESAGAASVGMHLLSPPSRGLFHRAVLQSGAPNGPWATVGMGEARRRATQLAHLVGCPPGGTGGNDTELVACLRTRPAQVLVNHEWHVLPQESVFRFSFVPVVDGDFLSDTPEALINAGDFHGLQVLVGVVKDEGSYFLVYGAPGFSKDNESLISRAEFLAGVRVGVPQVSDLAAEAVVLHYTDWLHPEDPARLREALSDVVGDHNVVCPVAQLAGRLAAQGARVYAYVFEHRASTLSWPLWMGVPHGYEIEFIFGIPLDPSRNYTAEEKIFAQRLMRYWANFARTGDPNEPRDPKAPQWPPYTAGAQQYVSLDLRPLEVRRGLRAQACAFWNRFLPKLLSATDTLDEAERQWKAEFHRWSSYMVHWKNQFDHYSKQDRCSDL
Chain of Acetylcholinesterase (Electrophorus electricus, UniProt O42275) (O42275 whole entry): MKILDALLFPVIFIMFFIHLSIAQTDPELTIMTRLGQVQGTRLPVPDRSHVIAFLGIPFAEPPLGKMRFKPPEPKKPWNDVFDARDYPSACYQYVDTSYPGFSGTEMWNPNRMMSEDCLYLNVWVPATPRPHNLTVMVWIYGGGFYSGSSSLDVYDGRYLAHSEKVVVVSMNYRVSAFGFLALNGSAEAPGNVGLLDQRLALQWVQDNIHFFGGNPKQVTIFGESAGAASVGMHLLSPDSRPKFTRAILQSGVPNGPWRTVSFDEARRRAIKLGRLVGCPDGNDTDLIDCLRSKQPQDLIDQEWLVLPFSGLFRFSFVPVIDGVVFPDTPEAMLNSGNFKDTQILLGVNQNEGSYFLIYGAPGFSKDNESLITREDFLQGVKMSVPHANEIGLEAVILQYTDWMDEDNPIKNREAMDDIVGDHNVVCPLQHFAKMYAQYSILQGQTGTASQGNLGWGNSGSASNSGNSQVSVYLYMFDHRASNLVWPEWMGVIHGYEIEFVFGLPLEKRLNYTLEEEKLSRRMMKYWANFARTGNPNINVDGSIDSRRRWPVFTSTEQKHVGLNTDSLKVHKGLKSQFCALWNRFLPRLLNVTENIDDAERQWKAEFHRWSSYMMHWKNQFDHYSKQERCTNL

Row | SMILES | inhibition [1] [%] | Activity (SH-SY5Y [2]) [%] | Activity (SH-SY5Y [3]) [%] | Activity (SH-SY5Y [4]) [%] | IC50 (Cholinesterase) [µM] | IC50 (Acetylcholinesterase [5]) [µM] | IC50 (Acetylcholinesterase [6]) [µM] | IC50 (Acetylcholinesterase [7]) [µM] | other results
1 | CCOC(=O)c1cc2c(N)c3c(nc2nc1C)CCC3 | 20 | 12.3 | 28.7 | 39.5 | 39 | 2.1 | 0.35 | 0.35 | –
2 | COc1ccc2c3c1O[C@H]1C[C@@H](O)C=C[C@@]31CCN(C)C2 [GALANTAMINE] | – | – | – | 0 | – | – | – | – | –
3 | CCOC(=O)c1cc2c(N)c3c(nc2nc1C)CCCCC3 | 10 | 19.9 | 31.1 | 28.9 | 2.1 | 2 | 0.31 | 0.31 | –
4 | COC(=O)c1cc2c(N)c3c(nc2nc1C)CCCCCC3 | 16 | 21.6 | 42.3 | 26.2 | 4.07 | 1.8 | 0.25 | 0.25 | –
5 | COC(=O)c1cc2c(N)c3c(nc2nc1C)CCCC3 | 16 | 11.6 | 25.8 | 44.8 | 3.4 | 1 | 0.093 | 0.093 | –
6 | CCOC(=O)c1cc2c(N)c3c(nc2nc1C)CCCCCC3 | 10 | 12.7 | 32.6 | 33.8 | 5.3 | 1.8 | 0.4 | 0.4 | –
7 | COC(=O)c1cc2c(N)c3c(nc2nc1C)CCCCC3 | 11 | 20.4 | 36.1 | 38.7 | 0.49 | 2 | 0.36 | 0.36 | –
8 | C=C1[C@@H](O)[C@@H]2O[C@]3(CC[C@H](/C=C/[C@@H](C)[C@@H]4CC(C)=C[C@@]5(O[C@H](C[C@@](C)(O)C(=O)O)CC[C@H]5O)O4)O3)CC[C@H]2O[C@@H]1[C@@H](O)C[C@H](C)[C@H]1O[C@@]2(CCCCO2)CC[C@H]1C [OKADAIC ACID] | – | – | – | 80.5 | – | – | – | – | –
9 | COC(=O)c1cc2c(N)c3c(nc2nc1C)CCC3 | 10 | 22.1 | 37.5 | 36.5 | 5 | 1.9 | 0.12 | 0.12 | –
10 | CC(=O)N[C@@H](CS)C(=O)O [ACETYLCYSTEINE] | – | – | 33.4 | – | – | – | – | – | –
11 | CCOC(=O)c1cc2c(N)c3c(nc2nc1C)CCCC3 | 10 | 20.9 | 48.4 | 75 | – | – | – | 0.06 | Activity (Rattus norvegicus [8]): Dose-dependent effect; Ki (Acetylcholinesterase [9]): 0.024 µM; Activity (Rattus norvegicus [10]): 77%; Activity (Rattus norvegicus [11]): 91%; Activity (SH-SY5Y [12]): Dose-dependent effect; Activity (SH-SY5Y [13]): 54%; Activity (SH-SY5Y [14]): 10%; Activity (Hippocampus [15]): Dose-dependent effect; EC50 (Hippocampus [15]): 6 µM; Activity (Hippocampus [16]): 65.5%
12 | COc1ccc2[nH]cc(CCNC(C)=O)c2c1 [MELATONIN] | – | – | 33.8 | – | – | – | – | – | –
13 | CCOC(=O)c1c(C)nc2nc3c(c(N)c2c1-c1ccccc1)CCCC3 | – | – | 26.8 | 22.1 | – | – | 0.8 | – | –
14 | C=CC[N+](C)(C)c1ccc(CCC(=O)CCc2ccc([N+](C)(C)CC=C)cc2)cc1 | – | – | – | – | – | – | – | – | inhibition [17]: 29%
